Data on 61 compounds can be found in PubChem BioAssay AID1956 (SRMLSC, 2009).

The source made the active and inactive calls. Rule as the data show it: active = maximum fold increase above about 1.5; inconclusive = no clear call, values can overlap the other calls; inactive = below that; tested in PC3 cells.

The term EC50 denotes the concentration at which the effect is half-maximal.

The subject of this experiment is HSV replication augmentation in cells, fold increase. The experiment can be described thus: compounds boosting herpes simplex virus growth – fold increase, host cell viability (AID 1956).
On to `CN(CC1CCOCC1)C(=O)CC1C(=O)NCCN1CC1CCCCC1` (stereo unspecified), for which the EC50 was > 25 µM (inactive).

`CC(=O)Nc1ccc(S(=O)(=O)Nc2cc(-c3ccccc3)nn2C)cc1`: the EC50 was > 25 µM (inactive).

For `O=S(=O)(Nc1ccc(Cc2ccncc2)cc1)c1ccc(Cl)c(Cl)c1`, the EC50 is > 25 µM (inactive).

Take `CCN(CC)c1ccc(/C=N/Nc2nc(C)cc(C)n2)cc1`: the EC50 was 23.2 µM (inactive).

In the case of `NNc1nc(-c2ccccc2Cl)nc2sc3c(c12)CCCC3`, the EC50 is > 25 µM (inactive).

With `O=c1cc(N2CCCCC2)c(-c2ccccc2)nn1Cc1c(Cl)cccc1Cl`, the EC50 is > 25 µM (inactive).

With `Cc1ccc(Oc2nnc(-c3ccccc3)c3ccccc23)cc1`, the EC50 was > 25 µM (inactive).

Regarding `O=C(CC1NCCNC1=O)NC1Cc2ccccc2C1` (stereo unspecified), the EC50 was > 25 µM (inactive).

On to `COc1ccccc1OP(=O)(Nc1cccnc1)Oc1ccccc1OC`, for which the EC50 was > 25 µM (inactive).

Regarding `O=C1NC(=O)N(Cc2ccco2)C(=O)/C1=C\c1cccn1CCOc1ccc(Cl)cc1`, the EC50 is > 25 µM (inactive).

For the compound `CNC(=S)NNC(=O)c1ccc(=O)n(Cc2ccc(Cl)cc2Cl)c1`, the EC50 was > 25 µM (inactive).

`CC(C)CC(N=C1NC(C)(C)Cc2ccccc21)C(=O)O` (stereo unspecified): the EC50 was > 25 µM (inactive).

`Cc1ccc(-c2nc(CSCC(=O)N3CCN(c4ccccn4)CC3)c(C)o2)cc1`: the EC50 was 15.7 µM (inactive).

Take `CC(C)(C)c1ccc(Cn2c(=N)n(CC(O)c3ccco3)c3ccccc32)cc1` (stereo unspecified): the EC50 was 11.4 µM (inactive).

In the case of `Cc1ccc(-c2nc(NC(=O)CSc3nnc4scc(-c5ccccc5)n34)ns2)cc1`, the EC50 was > 25 µM (inactive).

For `CC1(C)CC(=O)C(C=Nc2ccc(C(=O)c3ccccc3)cc2N=CC2=C(O)CC(C)(C)CC2=O)=C(O)C1`, the EC50 is > 25 µM (inactive).

For the compound `CC(C)N(C(=O)N1CCC(c2nc(-c3ccncc3)no2)CC1)C(C)C`, the EC50 was > 25 µM (inactive).

Turning to `CCn1c(/C=C/N(C)c2ccccc2)[n+](CC)c2ccc(Cl)cc21`, the EC50 was 10.2 µM (inactive).

Consider `Cc1ccc(S(=O)(=O)N(C(=O)c2ccncc2)c2ccc(OC(=O)c3ccncc3)c3ccccc23)cc1`, for which the EC50 is 18.3 µM (inactive).

As to `Cn1c(C(=O)Nc2ccc3c(c2)OCCO3)cc2c(=O)n(C)c3ccccc3c21`, the EC50 was > 25 µM (inactive).

Regarding `Cc1ccccc1C(=O)NNc1ccc([N+](=O)[O-])cc1`, the EC50 was > 25 µM (inactive).

Turning to `CCOC(=O)c1cnc(COc2ccc(OC)cc2)[nH]c1=O`, the EC50 is > 25 µM (inactive).

Take `Cn1cc(Br)c(NC(=O)/C=C/C(=O)O)n1`: the EC50 was > 25 µM (inactive).

Turning to `COC(=O)C1=C(O)C(C(=O)OC)C(c2ccc(C)cc2)C(C#N)(C#N)C1c1ccc(C)cc1` (stereo unspecified), the EC50 was > 25 µM (inactive).

Regarding `CS(=O)(=O)N1CC2CCCN2c2cc(C(F)(F)F)ccc21` (stereo unspecified), the EC50 was > 25 µM (inactive).

In the case of `CC(C(=O)c1c[nH]c2ccccc12)N1CCc2ccccc2C1` (stereo unspecified), the EC50 was > 25 µM (inactive).

Regarding `CCCN1C(=O)C2(C(C(=O)c3ccc(C)o3)=C(O)C(=O)N2CCCOC)c2ccccc21` (stereo unspecified), the EC50 was > 25 µM (inactive).

`CC1=CC(C)(C)Nc2ccc(OC(=O)CN3C(=O)C4CCCCC4C3=O)cc21` (stereo unspecified): the EC50 was > 25 µM (inactive).

For the compound `CCc1ccc(NC(=O)COc2ccc(/C=C(/C#N)c3nc4ccccc4[nH]3)cc2OC)cc1`, the EC50 is 24 µM (inactive).

As for `CCCCn1ccnc1C(=O)c1cccc(S(=O)(=O)N2CC(C)CC(C)C2)c1` (stereo unspecified), the EC50 is > 25 µM (inactive).

Take `COC(=O)c1c(C)[nH]c(O)c1C=Nc1ccc(C(C)C)cc1`: the EC50 is > 25 µM (inactive).

Turning to `CC1(C(O)(C#CCN2CCCCC2)c2ccccc2)CCCC1` (stereo unspecified), the EC50 was > 25 µM (inactive).

As for `CCc1ccc2[nH]c(=O)c(CN(Cc3ccccc3OC)Cc3nnnn3Cc3ccco3)cc2c1`, the EC50 is > 25 µM (inactive).

In the case of `N#C/C(=C\c1ccccc1[N+](=O)[O-])C(=O)NC1CCCCC1`, the EC50 is > 25 µM (inactive).

For `COc1cccc(C(=O)N2CCN(CCCc3ccccc3)CC2)c1OC`, the EC50 is > 25 µM (inactive).

`Nc1ccccc1Nc1cc(-c2ccccc2)[nH]n1`: the EC50 is 10.9 µM (inactive).

With `COCc1ccc(C(=O)N2CCCC(C(=O)c3cc(F)ccc3F)C2)s1` (stereo unspecified), the EC50 was > 25 µM (inactive).

Take `OC(CNCc1ccccc1)c1ccccc1` (stereo unspecified): the EC50 was > 25 µM (inactive).

Turning to `N#C/C(=C\Nc1ccc2cn[nH]c2c1)c1nc(-c2ccc(Cl)cc2)cs1`, the EC50 was 24.4 µM (inactive).

Turning to `CN1C(=O)C(C2c3ccccc3C(=O)N2Cc2ccc([N+](=O)[O-])cc2)C(=O)N(C)C1=O` (stereo unspecified), the EC50 is > 25 µM (inactive).

On to `Nc1c(Cl)ncnc1N/N=C/c1ccc2ccccc2n1`, for which the EC50 was 4.3 µM (inactive).

On to `CCOC(=O)c1c(NC(=O)C2COc3ccccc3O2)sc2c1CCN(Cc1ccccc1)C2` (stereo unspecified), for which the EC50 was > 25 µM (inactive).

`Oc1ccc(N=Nc2cccc(C(F)(F)F)c2)cc1C=Nc1ccc(N2CCOCC2)cc1`: the EC50 was 18.8 µM (inactive).

As for `Cc1cc(=O)[nH]c(SCC(=O)/C=C2\N(C)c3ccccc3C2(C)C)n1`, the EC50 was > 25 µM (inactive).

Consider `Cc1ccc(Cn2ccc(-c3cnc(-c4ccccc4)s3)n2)cc1`, for which the EC50 was > 25 µM (inactive).

On to `COc1ccc(S(=O)(=O)/N=C2/NC(=O)/C(=C\c3ccco3)S2)cc1`, for which the EC50 is > 25 µM (inactive).

Take `C[N+]1=C(/C=C/Nc2ccccc2Cl)C(C)(C)c2ccccc21`: the EC50 was > 25 µM (inactive).

On to `COc1cccc(C2C=C(c3ccc(OC)cc3OC)Nc3nnnn32)c1` (stereo unspecified), for which the EC50 was > 25 µM (inactive).

In the case of `C=CCNC(=S)Nc1ccc2nc(C)oc2c1`, the EC50 is > 25 µM (inactive).

Take `O=C(C1=NN[C@@H]2C(=O)N(c3cccc(F)c3)C(=O)[C@H]12)c1cnccn1`: the EC50 is > 25 µM (inactive).

Regarding `CC(=O)c1cccc(NC(=O)/C=C/c2ccc([N+](=O)[O-])s2)c1`, the EC50 was 19 µM (inactive).

Turning to `CCOCCCNC(=O)CN1C(=O)C(CC)Oc2ccccc21` (stereo unspecified), the EC50 is > 25 µM (inactive).

With `CCOCCCNC(=S)N1CCCN(c2nc3cc(C)c(C)cc3cc2C#N)CC1`, the EC50 is > 25 µM (inactive).

`CSc1nc(Cl)c(Cc2ccc(OC(C)C)cc2)c(N(C)C)n1`: the EC50 was > 25 µM (inactive).

As for `O=C(c1cc(COc2ccc3ncccc3c2)on1)N1CCC(O)CC1`, the EC50 was > 25 µM (inactive).

Take `CN1C(=O)CC(c2ccco2)Sc2ccccc21` (stereo unspecified): the EC50 was > 25 µM (inactive).

Regarding `O=C(O)/C=C/C(=O)Nc1ccc(-n2ccc(C(F)(F)F)n2)cc1`, the EC50 was > 25 µM (inactive).

Regarding `COc1ccc(CCc2nnc(CCC(=O)N(C)Cc3ccnc4ccccc34)o2)cc1`, the EC50 is 13.1 µM (inactive).

Regarding `COc1cccc(N2CCN(Cc3nc4scc(-c5ccccc5)c4c(=O)[nH]3)CC2)c1`, the EC50 is 21.9 µM (inactive).

Turning to `Cc1ccc(-n2nc3c(c2NC(=O)c2ccc(OC(C)C)cc2)CS(=O)C3)cc1` (stereo unspecified), the EC50 is > 25 µM (inactive).

On to `O=C(O)/C(=C\c1ccc(Br)cc1)c1ccc(S(=O)(=O)N2CCCCC2)s1`, for which the EC50 is > 25 µM (inactive).
